From US20260193293A1, “PEPTIDES CAPABLE OF INHIBITING PROTEIN-PROTEIN INTERACTIONS AT GABAB1A SUBUNIT AND USES THEREOF” (UNIVERSITY OF COPENHAGEN, priority 2022, published 2026)
Non-standard residues stand in square brackets, D forms with d. Residues, ends and D or L forms follow the SMILES beside them. NMeW = CN[C@@H](Cc1c[nH]c2ccccc12)C(=O)O; NMeI = CC[C@H](C)[C@H](NC)C(=O)O; NMeV = CN[C@H](C(=O)O)C(C)C; NMeA = CN[C@@H](C)C(=O)O; Sar = CNCC(=O)O

Target: Sushi domains (SD1/2) protein
Assay: Fluorescence polarization (FP) competition assay with AJAP-1probe, calculated Ki
Assay type: binding
Conditions: Table 9, Ala-, D-amino acids and N-methylation scans of PIANPWT; read-out: Ki (nM) mean ± SEM
In short: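 Competition against 25 nM TAMRA-labelled peptide probe binding SD1/2, in PBS pH 7.4 with 1% BSA at rt, read at 530/580 nm. IC50 from sigmoidal dose-response fits, at least triplicate; Ki calculated from IC50 using probe Kd from saturation binding.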

In order of falling Ki:
1. CC[C@H](C)[C@H](NC(=O)[C@H](C)NC(=O)[C@H](Cc1c[nH]c2ccccc12)NC(=O)[C@@H]1CCCN1C(C)=O)C(=O)N[C@H](C(=O)N[C@@H](Cc1c[nH]c2ccccc12)C(=O)N(C)CC(=O)N1CCC[C@H]1C(=O)N[C@H](C(=O)N[C@H](C(=O)N[C@@H](CO)C(=O)N[C@@H](CCCNC(=N)N)C(=O)N[C@@H](CCC(=O)O)C(=O)N[C@@H](CC(=O)O)C(N)=O)C(C)C)[C@@H](C)O)C(C)C [PWAIVW(N-Me-G)PTVSRED] (Ac-PWAIVW[Sar]PTVSRED-NH2)  58300 ± 4410 nM
2. CC(=O)N1CCC[C@H]1C(=O)N[C@@H](Cc1c[nH]c2ccccc12)C(=O)N[C@@H](C)C(=O)N[C@@H](C)C(=O)N[C@H](C(=O)N[C@@H](Cc1c[nH]c2ccccc12)C(=O)NCC(=O)N1CCC[C@H]1C(=O)N[C@H](C(=O)N[C@H](C(=O)N[C@@H](CO)C(=O)N[C@@H](CCCNC(=N)N)C(=O)N[C@@H](CCC(=O)O)C(=O)N[C@@H](CC(=O)O)C(N)=O)C(C)C)[C@@H](C)O)C(C)C [PWAAVWGPTVSRED] (Ac-PWAAVWGPTVSRED-NH2)  46600 ± 4840 nM
3. CC[C@H](C)[C@H](NC(=O)[C@H](C)N(C)C(=O)[C@H](Cc1c[nH]c2ccccc12)NC(=O)[C@@H]1CCCN1C(C)=O)C(=O)N[C@H](C(=O)N[C@@H](Cc1c[nH]c2ccccc12)C(=O)NCC(=O)N1CCC[C@H]1C(=O)N[C@H](C(=O)N[C@H](C(=O)N[C@@H](CO)C(=O)N[C@@H](CCCNC(=N)N)C(=O)N[C@@H](CCC(=O)O)C(=O)N[C@@H](CC(=O)O)C(N)=O)C(C)C)[C@@H](C)O)C(C)C [PW(N-Me-A)IVWGPTVSRED] (Ac-PW[NMeA]IVWGPTVSRED-NH2)  7230 ± 130 nM
4. CC[C@H](C)[C@H](NC(=O)[C@H](C)NC(=O)[C@H](Cc1c[nH]c2ccccc12)NC(=O)[C@@H]1CCCN1C(C)=O)C(=O)N(C)[C@H](C(=O)N[C@@H](Cc1c[nH]c2ccccc12)C(=O)NCC(=O)N1CCC[C@H]1C(=O)N[C@H](C(=O)N[C@H](C(=O)N[C@@H](CO)C(=O)N[C@@H](CCCNC(=N)N)C(=O)N[C@@H](CCC(=O)O)C(=O)N[C@@H](CC(=O)O)C(N)=O)C(C)C)[C@@H](C)O)C(C)C [PWAI(N-Me-V)WGPTVSRED] (Ac-PWAI[NMeV]WGPTVSRED-NH2)  7000 ± 100 nM
5. CC[C@H](C)[C@H](NC(=O)[C@H](C)NC(=O)[C@H](Cc1c[nH]c2ccccc12)NC(=O)[C@@H]1CCCN1C(C)=O)C(=O)N[C@H](C(=O)N[C@@H](Cc1c[nH]c2ccccc12)C(=O)NCC(=O)N[C@@H](C)C(=O)N[C@H](C(=O)N[C@H](C(=O)N[C@@H](CO)C(=O)N[C@@H](CCCNC(=N)N)C(=O)N[C@@H](CCC(=O)O)C(=O)N[C@@H](CC(=O)O)C(N)=O)C(C)C)[C@@H](C)O)C(C)C [PWAIVWGATVSRED] (Ac-PWAIVWGATVSRED-NH2)  1500 ± 34 nM
6. CC[C@H](C)[C@H](NC(=O)[C@H](C)NC(=O)[C@H](Cc1c[nH]c2ccccc12)NC(=O)[C@@H]1CCCN1C(C)=O)C(=O)N[C@@H](C)C(=O)N[C@@H](Cc1c[nH]c2ccccc12)C(=O)NCC(=O)N1CCC[C@H]1C(=O)N[C@H](C(=O)N[C@H](C(=O)N[C@@H](CO)C(=O)N[C@@H](CCCNC(=N)N)C(=O)N[C@@H](CCC(=O)O)C(=O)N[C@@H](CC(=O)O)C(N)=O)C(C)C)[C@@H](C)O [PWAIAWGPTVSRED]  1462 ± 14 nM
7. CC[C@H](C)[C@H](NC(=O)[C@H](C)NC(=O)[C@H](Cc1c[nH]c2ccccc12)NC(=O)[C@@H]1CCCN1C(C)=O)C(=O)N[C@H](C(=O)N[C@@H](Cc1c[nH]c2ccccc12)C(=O)NCC(=O)N1CCC[C@H]1C(=O)N[C@@H](C)C(=O)N[C@H](C(=O)N[C@@H](CO)C(=O)N[C@@H](CCCNC(=N)N)C(=O)N[C@@H](CCC(=O)O)C(=O)N[C@@H](CC(=O)O)C(N)=O)C(C)C)C(C)C [PWAIVWGPAVSRED] (Ac-PWAIVWGPAVSRED-NH2)  1030 ± 26 nM
8. CC[C@H](C)[C@H](NC(=O)[C@H](C)NC(=O)[C@H](C)NC(=O)[C@@H]1CCCN1C(C)=O)C(=O)N[C@H](C(=O)N[C@@H](Cc1c[nH]c2ccccc12)C(=O)NCC(=O)N1CCC[C@H]1C(=O)N[C@H](C(=O)N[C@H](C(=O)N[C@@H](CO)C(=O)N[C@@H](CCCNC(=N)N)C(=O)N[C@@H](CCC(=O)O)C(=O)N[C@@H](CC(=O)O)C(N)=O)C(C)C)[C@@H](C)O)C(C)C [PAAIVWGPTVSRED] (Ac-PAAIVWGPTVSRED-NH2)  911 ± 13 nM
9. CC[C@H](C)[C@H](NC(=O)[C@H](C)NC(=O)[C@H](Cc1c[nH]c2ccccc12)NC(=O)[C@@H]1CCCN1C(C)=O)C(=O)N[C@H](C(=O)N(C)[C@@H](Cc1c[nH]c2ccccc12)C(=O)NCC(=O)N1CCC[C@H]1C(=O)N[C@H](C(=O)N[C@H](C(=O)N[C@@H](CO)C(=O)N[C@@H](CCCNC(=N)N)C(=O)N[C@@H](CCC(=O)O)C(=O)N[C@@H](CC(=O)O)C(N)=O)C(C)C)[C@@H](C)O)C(C)C [PWAIV(N-Me-W)GPTVSRED] (Ac-PWAIV[NMeW]GPTVSRED-NH2)  636 ± 6 nM
10. CC[C@H](C)[C@H](NC(=O)[C@H](C)NC(=O)[C@H](Cc1c[nH]c2ccccc12)NC(=O)[C@@H]1CCCN1C(C)=O)C(=O)N[C@H](C(=O)N[C@@H](Cc1c[nH]c2ccccc12)C(=O)NCC(=O)N(C)CC(=O)N[C@H](C(=O)N[C@H](C(=O)N[C@@H](CO)C(=O)N[C@@H](CCCNC(=N)N)C(=O)N[C@@H](CCC(=O)O)C(=O)N[C@@H](CC(=O)O)C(N)=O)C(C)C)[C@@H](C)O)C(C)C [PWAIVWG(N-Me-G)TVSRED] (Ac-PWAIVWG[Sar]TVSRED-NH2)  525 ± 22 nM
11. CC[C@H](C)[C@@H](C(=O)N[C@H](C(=O)N[C@@H](Cc1c[nH]c2ccccc12)C(=O)NCC(=O)N1CCC[C@H]1C(=O)N[C@H](C(=O)N[C@H](C(=O)N[C@@H](CO)C(=O)N[C@@H](CCCNC(=N)N)C(=O)N[C@@H](CCC(=O)O)C(=O)N[C@@H](CC(=O)O)C(N)=O)C(C)C)[C@@H](C)O)C(C)C)N(C)C(=O)[C@H](C)NC(=O)[C@H](Cc1c[nH]c2ccccc12)NC(=O)[C@@H]1CCCN1C(C)=O [PWA(N-Me-I)VWGPTVSRED] (Ac-PWA[NMeI]VWGPTVSRED-NH2)  370 ± 5 nM
12. CC[C@H](C)[C@H](NC(=O)[C@H](C)NC(=O)[C@H](Cc1c[nH]c2ccccc12)NC(=O)[C@@H]1CCCN1C(C)=O)C(=O)N[C@H](C(=O)N[C@@H](Cc1c[nH]c2ccccc12)C(=O)NCC(=O)N1CCC[C@H]1C(=O)N[C@H](C(=O)N[C@@H](C)C(=O)N[C@@H](CO)C(=O)N[C@@H](CCCNC(=N)N)C(=O)N[C@@H](CCC(=O)O)C(=O)N[C@@H](CC(=O)O)C(N)=O)[C@@H](C)O)C(C)C [PWAIVWGPTASRED] (Ac-PWAIVWGPTASRED-NH2)  318 ± 3 nM

Same assay, conditions: Table 9, cells printed in μM; read-out: Ki (nM) mean ± SEM

With `CC[C@H](C)[C@H](NC(=O)[C@H](C)NC(=O)[C@H](Cc1c[nH]c2ccccc12)NC(=O)[C@@H]1CCCN1C(C)=O)C(=O)N[C@H](C(=O)N[C@@H](C)C(=O)NCC(=O)N1CCC[C@H]1C(=O)N[C@H](C(=O)N[C@H](C(=O)N[C@@H](CO)C(=O)N[C@@H](CCCNC(=N)N)C(=O)N[C@@H](CCC(=O)O)C(=O)N[C@@H](CC(=O)O)C(N)=O)C(C)C)[C@@H](C)O)C(C)C` [PWAIVAGPTVSRED] (Ac-PWAIVAGPTVSRED-NH2) the Ki was over 62500 nM.

Same assay, conditions: Table 12, deep mutational scanning validation variants of PIANPWT; read-out: Ki (nM) mean ± SEM

In order of falling Ki:
1. CC[C@H](C)[C@H](NC(=O)[C@H](C)NC(=O)[C@H](Cc1c[nH]cn1)NC(=O)[C@@H]1CCCN1C(C)=O)C(=O)N[C@H](C(=O)N[C@@H](Cc1c[nH]c2ccccc12)C(=O)NCC(=O)N1CCC[C@H]1C(=O)N[C@H](C(=O)N[C@H](C(=O)N[C@@H](CO)C(=O)N[C@@H](CCCNC(=N)N)C(=O)N[C@@H](CCC(=O)O)C(=O)N[C@@H](CC(=O)O)C(N)=O)C(C)C)[C@@H](C)O)C(C)C [PHAIVWGPTVSRED] (Ac-PHAIVWGPTVSRED-NH2)  1500 ± 50 nM
2. CC[C@H](C)[C@H](NC(=O)[C@H](C)NC(=O)[C@H](Cc1c[nH]c2ccccc12)NC(=O)[C@@H]1CCCN1C(C)=O)C(=O)N[C@@H](CC(=O)O)C(=O)N[C@@H](Cc1c[nH]c2ccccc12)C(=O)NCC(=O)N1CCC[C@H]1C(=O)N[C@H](C(=O)N[C@H](C(=O)N[C@@H](CO)C(=O)N[C@@H](CCCNC(=N)N)C(=O)N[C@@H](CCC(=O)O)C(=O)N[C@@H](CC(=O)O)C(N)=O)C(C)C)[C@@H](C)O [PWAIDWGPTVSRED] (Ac-PWAIDWGPTVSRED-NH2)  1300 ± 16 nM
3. CC[C@H](C)[C@H](NC(=O)[C@H](C)NC(=O)[C@H](CO)NC(=O)[C@@H]1CCCN1C(C)=O)C(=O)N[C@H](C(=O)N[C@@H](Cc1c[nH]c2ccccc12)C(=O)NCC(=O)N1CCC[C@H]1C(=O)N[C@H](C(=O)N[C@H](C(=O)N[C@@H](CO)C(=O)N[C@@H](CCCNC(=N)N)C(=O)N[C@@H](CCC(=O)O)C(=O)N[C@@H](CC(=O)O)C(N)=O)C(C)C)[C@@H](C)O)C(C)C [PSAIVWGPTVSRED] (Ac-PSAIVWGPTVSRED-NH2)  906 ± 20 nM
4. CC[C@H](C)[C@H](NC(=O)[C@H](C)NC(=O)[C@H](Cc1ccccc1)NC(=O)[C@@H]1CCCN1C(C)=O)C(=O)N[C@H](C(=O)N[C@@H](Cc1c[nH]c2ccccc12)C(=O)NCC(=O)N1CCC[C@H]1C(=O)N[C@H](C(=O)N[C@H](C(=O)N[C@@H](CO)C(=O)N[C@@H](CCCNC(=N)N)C(=O)N[C@@H](CCC(=O)O)C(=O)N[C@@H](CC(=O)O)C(N)=O)C(C)C)[C@@H](C)O)C(C)C [PFAIVWGPTVSRED] (Ac-PFAIVWGPTVSRED-NH2)  792 ± 11 nM
5. CC[C@H](C)[C@H](NC(=O)[C@H](C)NC(=O)[C@H](CC(=O)O)NC(=O)[C@@H]1CCCN1C(C)=O)C(=O)N[C@H](C(=O)N[C@@H](Cc1c[nH]c2ccccc12)C(=O)NCC(=O)N1CCC[C@H]1C(=O)N[C@H](C(=O)N[C@H](C(=O)N[C@@H](CO)C(=O)N[C@@H](CCCNC(=N)N)C(=O)N[C@@H](CCC(=O)O)C(=O)N[C@@H](CC(=O)O)C(N)=O)C(C)C)[C@@H](C)O)C(C)C [PDAIVWGPTVSRED] (Ac-PDAIVWGPTVSRED-NH2)  673 ± 7 nM
6. CC[C@H](C)[C@H](NC(=O)[C@H](C)NC(=O)[C@H](Cc1c[nH]c2ccccc12)NC(=O)[C@@H]1CCCN1C(C)=O)C(=O)N[C@H](C(=O)N[C@@H](Cc1c[nH]c2ccccc12)C(=O)NCC(=O)N1CCC[C@H]1C(=O)N[C@H](C(=O)N[C@@H](CC(=O)O)C(=O)N[C@@H](CO)C(=O)N[C@@H](CCCNC(=N)N)C(=O)N[C@@H](CCC(=O)O)C(=O)N[C@@H](CC(=O)O)C(N)=O)[C@@H](C)O)C(C)C [PWAIVWGPTDSRED] (Ac-PWAIVWGPTDSRED-NH2)  417 ± 6 nM

Same assay, conditions: Table 13, peptides for affinity maturation; read-out: Ki (nM) mean ± SEM

Work on `CC[C@H](C)[C@H](NC(=O)[C@H](C)NC(=O)[C@H](Cc1c[nH]c2ccccc12)NC(=O)[C@@H]1CCCN1C(C)=O)C(=O)N[C@H](C(=O)N[C@@H](Cc1c[nH]c2ccccc12)C(=O)NCC(=O)N(C)CC(=O)N[C@H](C(=O)N[C@H](C(=O)N[C@@H](CO)C(=O)N[C@@H](CCCNC(=N)N)C(=O)N[C@@H](CCC(=O)O)C(=O)N[C@@H](CC(=O)O)C(N)=O)C(C)C)[C@@H](C)O)C(C)C` [PWAIVWG(N-Me-G)TVSRED] (Ac-PWAIVWG[Sar]TVSRED-NH2) yielded a Ki of 525 ± 22 nM.
